Source: publication doi:10.1101/2020.06.11.145995v1 (biorxiv, 2020)
Like-named read-outs stand apart in the source and are kept apart here.

What was measured:
Experiment in all cases: biochemical
[1] = target: RIPK4 (Homo sapiens, UniProt P57078)
[2] = target: TIE2 (Homo sapiens, UniProt Q02763)
[3] = target: ZAP70 (Homo sapiens, UniProt P43403)
[4] = target: RAF1 (Homo sapiens, UniProt P04049)
[5] = target: PCTK2 (Homo sapiens, UniProt Q00537)
[6] = target: TIE1 (Homo sapiens, UniProt P35590)
[7] = target: TGFBR1 (Homo sapiens, UniProt P36897)
[8] = target: TGFBR2 (Homo sapiens, UniProt P37173)
[9] = target: NEK1 (Homo sapiens, UniProt Q96PY6)
[10] = target: TYK2 (Homo sapiens, UniProt P29597)
[11] = target: TNIK (Homo sapiens, UniProt Q9UKE5)
[12] = target: S6K1 (Homo sapiens, UniProt P23443)
[13] = target: PIK3C2G (Homo sapiens, UniProt O75747)
[14] = target: YANK3 (Homo sapiens, UniProt Q86UX6)
[15] = target: TEC (Homo sapiens, UniProt P42680)
[16] = target: SIK2 (Homo sapiens, UniProt Q9H0K1)
[17] = target: TYRO3 (Homo sapiens, UniProt Q06418)
[18] = target: PDGFRA (Homo sapiens, UniProt P16234)
[19] = target: ULK3 (Homo sapiens, UniProt Q6PHR2)
[20] = target: QSK (Homo sapiens, UniProt Q9Y2K2)
[21] = target: PFTK1 (Homo sapiens, UniProt O94921)
[22] = target: YSK4 (Homo sapiens, UniProt Q56UN5)
[23] = target: NIM1 (Homo sapiens, UniProt Q8IY84)
[24] = target: PRKG2 (Homo sapiens, UniProt Q13237)
[25] = target: PLK3 (Homo sapiens, UniProt Q9H4B4)
[26] = target: TLK2 (Homo sapiens, UniProt Q86UE8)
[27] = target: PRKCQ (Homo sapiens, UniProt Q04759)
[28] = target: PLK4 (Homo sapiens, UniProt O00444)
[29] = target: PRKCH (Homo sapiens, UniProt P24723)
[30] = target: YANK1 (Homo sapiens, UniProt Q8WU08)
[31] = read-out: HYJ-2-002-1 (1μM) % control
[32] = read-out: CPT-1-70-1 (1μM) % control

TYK2, sequence (P29597 whole entry): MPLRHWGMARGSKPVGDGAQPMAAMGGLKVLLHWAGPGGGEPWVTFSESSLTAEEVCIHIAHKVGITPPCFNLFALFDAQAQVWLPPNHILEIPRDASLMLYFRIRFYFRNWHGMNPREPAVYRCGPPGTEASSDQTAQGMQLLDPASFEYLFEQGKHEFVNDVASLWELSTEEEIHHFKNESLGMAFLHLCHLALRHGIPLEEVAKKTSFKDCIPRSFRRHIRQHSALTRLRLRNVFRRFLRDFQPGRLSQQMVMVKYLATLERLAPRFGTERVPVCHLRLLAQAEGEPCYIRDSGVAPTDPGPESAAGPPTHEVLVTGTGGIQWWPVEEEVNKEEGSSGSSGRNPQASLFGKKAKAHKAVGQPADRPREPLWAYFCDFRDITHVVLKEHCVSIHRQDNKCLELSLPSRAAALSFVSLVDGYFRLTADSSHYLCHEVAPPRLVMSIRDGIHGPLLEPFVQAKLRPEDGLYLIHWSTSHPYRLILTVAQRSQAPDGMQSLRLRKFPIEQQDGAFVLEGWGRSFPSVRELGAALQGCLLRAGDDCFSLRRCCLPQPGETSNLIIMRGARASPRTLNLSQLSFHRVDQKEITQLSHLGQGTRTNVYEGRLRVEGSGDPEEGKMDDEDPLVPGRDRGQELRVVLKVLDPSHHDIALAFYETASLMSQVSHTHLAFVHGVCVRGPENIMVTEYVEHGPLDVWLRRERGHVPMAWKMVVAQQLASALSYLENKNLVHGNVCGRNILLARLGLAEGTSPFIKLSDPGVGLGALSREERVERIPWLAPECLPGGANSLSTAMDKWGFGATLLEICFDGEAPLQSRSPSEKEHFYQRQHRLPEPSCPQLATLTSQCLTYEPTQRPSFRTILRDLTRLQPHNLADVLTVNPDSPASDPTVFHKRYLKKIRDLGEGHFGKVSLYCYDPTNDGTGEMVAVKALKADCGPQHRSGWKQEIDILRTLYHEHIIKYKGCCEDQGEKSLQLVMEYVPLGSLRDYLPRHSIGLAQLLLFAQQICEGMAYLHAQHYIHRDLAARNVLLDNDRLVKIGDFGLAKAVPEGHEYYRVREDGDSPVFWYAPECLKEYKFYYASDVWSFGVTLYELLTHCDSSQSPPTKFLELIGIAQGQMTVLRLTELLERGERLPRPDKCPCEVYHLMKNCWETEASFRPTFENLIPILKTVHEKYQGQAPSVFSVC
PRKG2, sequence (Q13237 whole entry): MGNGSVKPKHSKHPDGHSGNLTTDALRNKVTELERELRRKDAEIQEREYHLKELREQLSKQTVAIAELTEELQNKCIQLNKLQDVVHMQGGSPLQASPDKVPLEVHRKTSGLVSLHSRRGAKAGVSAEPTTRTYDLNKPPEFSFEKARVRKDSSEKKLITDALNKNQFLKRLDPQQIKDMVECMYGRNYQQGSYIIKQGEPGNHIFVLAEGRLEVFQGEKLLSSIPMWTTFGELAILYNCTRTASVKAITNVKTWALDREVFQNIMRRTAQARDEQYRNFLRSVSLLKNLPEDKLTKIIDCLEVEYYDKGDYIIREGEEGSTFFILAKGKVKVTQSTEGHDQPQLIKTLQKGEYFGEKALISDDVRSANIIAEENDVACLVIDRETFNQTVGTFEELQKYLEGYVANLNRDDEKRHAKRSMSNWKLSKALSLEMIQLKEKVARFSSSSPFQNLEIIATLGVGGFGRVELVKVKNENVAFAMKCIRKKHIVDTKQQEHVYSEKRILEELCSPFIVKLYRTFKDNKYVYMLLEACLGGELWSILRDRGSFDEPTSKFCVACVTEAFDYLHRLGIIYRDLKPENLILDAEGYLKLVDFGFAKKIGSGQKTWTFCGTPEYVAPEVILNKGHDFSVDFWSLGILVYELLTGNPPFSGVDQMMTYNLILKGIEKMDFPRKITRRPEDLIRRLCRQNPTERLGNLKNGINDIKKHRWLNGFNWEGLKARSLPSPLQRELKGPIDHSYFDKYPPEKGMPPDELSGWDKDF
ZAP70, sequence (P43403 whole entry): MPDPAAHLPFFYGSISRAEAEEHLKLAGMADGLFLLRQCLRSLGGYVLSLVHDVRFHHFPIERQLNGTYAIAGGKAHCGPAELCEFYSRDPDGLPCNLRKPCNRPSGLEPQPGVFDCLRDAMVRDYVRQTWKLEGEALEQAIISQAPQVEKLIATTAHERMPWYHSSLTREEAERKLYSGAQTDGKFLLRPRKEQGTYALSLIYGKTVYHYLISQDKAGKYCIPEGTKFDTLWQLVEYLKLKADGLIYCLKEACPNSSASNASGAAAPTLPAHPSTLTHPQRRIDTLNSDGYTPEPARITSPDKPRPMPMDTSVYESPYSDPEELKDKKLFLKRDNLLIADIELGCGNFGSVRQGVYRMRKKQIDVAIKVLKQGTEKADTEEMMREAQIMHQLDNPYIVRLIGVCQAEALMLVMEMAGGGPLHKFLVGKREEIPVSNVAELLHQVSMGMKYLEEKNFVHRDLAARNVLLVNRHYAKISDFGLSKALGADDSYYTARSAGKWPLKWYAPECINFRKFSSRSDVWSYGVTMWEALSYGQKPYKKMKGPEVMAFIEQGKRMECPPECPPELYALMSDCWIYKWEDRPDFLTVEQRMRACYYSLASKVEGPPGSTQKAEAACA
PIK3C2G, sequence (O75747 whole entry): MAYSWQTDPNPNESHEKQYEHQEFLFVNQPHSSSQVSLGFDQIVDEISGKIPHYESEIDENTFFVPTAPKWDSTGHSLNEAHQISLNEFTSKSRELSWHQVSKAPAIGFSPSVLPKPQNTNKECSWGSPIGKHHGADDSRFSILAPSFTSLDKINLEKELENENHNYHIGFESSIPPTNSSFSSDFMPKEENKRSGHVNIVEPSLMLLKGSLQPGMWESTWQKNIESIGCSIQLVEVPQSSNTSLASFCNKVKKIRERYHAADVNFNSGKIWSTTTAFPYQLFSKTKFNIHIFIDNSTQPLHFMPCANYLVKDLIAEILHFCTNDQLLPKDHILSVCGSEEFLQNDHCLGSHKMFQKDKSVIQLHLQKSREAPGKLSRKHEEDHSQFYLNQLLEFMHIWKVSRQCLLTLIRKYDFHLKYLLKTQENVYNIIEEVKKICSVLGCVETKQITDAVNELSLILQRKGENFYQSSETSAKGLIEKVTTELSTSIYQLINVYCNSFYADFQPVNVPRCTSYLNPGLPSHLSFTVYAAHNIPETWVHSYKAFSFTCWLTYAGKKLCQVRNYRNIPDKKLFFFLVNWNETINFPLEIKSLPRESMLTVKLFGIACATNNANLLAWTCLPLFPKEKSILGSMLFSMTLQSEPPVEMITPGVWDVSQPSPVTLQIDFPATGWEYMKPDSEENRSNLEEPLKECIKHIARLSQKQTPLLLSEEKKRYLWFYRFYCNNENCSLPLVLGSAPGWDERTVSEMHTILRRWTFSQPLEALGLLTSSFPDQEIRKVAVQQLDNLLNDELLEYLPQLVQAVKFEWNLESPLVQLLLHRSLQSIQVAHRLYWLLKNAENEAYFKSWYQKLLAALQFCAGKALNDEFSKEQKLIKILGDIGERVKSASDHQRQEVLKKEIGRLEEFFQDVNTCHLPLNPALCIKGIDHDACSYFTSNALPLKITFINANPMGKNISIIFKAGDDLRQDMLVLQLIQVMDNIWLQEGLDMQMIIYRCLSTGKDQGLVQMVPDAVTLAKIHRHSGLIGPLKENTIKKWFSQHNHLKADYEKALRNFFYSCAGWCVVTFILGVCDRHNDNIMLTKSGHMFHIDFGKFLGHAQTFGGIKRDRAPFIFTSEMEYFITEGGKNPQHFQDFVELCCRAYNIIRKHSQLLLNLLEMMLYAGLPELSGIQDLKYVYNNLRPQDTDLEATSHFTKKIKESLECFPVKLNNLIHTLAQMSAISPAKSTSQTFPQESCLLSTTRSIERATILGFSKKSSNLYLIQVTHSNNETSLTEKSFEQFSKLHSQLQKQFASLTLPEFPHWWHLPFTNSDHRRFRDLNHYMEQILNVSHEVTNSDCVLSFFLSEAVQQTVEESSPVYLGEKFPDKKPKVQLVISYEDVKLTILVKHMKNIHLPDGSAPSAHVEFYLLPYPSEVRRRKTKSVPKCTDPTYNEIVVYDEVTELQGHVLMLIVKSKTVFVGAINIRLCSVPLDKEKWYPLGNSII
YANK3, sequence (Q86UX6 whole entry): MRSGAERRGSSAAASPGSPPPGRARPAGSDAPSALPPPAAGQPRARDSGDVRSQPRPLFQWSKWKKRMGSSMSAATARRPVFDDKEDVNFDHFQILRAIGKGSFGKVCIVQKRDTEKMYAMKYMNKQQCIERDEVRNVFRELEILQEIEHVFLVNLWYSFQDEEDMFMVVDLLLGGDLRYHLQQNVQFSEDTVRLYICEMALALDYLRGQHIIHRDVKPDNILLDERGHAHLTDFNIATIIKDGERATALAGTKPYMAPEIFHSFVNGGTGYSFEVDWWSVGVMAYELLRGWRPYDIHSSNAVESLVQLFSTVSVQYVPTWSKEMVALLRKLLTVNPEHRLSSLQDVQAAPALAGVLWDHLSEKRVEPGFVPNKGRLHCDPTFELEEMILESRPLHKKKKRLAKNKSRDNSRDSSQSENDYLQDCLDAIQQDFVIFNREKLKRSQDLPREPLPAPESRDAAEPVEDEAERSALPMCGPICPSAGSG
YANK1, sequence (Q8WU08 whole entry): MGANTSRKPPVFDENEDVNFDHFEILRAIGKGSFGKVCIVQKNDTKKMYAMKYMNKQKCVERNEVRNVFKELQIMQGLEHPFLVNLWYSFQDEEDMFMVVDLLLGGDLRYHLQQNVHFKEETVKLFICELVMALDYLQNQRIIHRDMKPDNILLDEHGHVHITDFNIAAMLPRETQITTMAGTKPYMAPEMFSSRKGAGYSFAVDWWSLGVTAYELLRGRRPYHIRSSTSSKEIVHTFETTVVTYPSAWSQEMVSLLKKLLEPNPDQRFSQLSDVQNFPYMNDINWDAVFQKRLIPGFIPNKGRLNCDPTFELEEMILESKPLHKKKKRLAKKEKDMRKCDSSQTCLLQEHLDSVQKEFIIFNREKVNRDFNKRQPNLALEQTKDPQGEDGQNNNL

CCN1CCN(Cc2ccc(NC(=O)c3ccc(C)c(CCc4cnc5[nH]ccc5c4OC)c3)cc2C(F)(F)F)CC1 [HYJ-2-002-1]
remaining activity at 1 µM [1, 31]: 100%
remaining activity at 1 µM [2, 31]: 0.15%
remaining activity at 1 µM [3, 31]: 69%
remaining activity at 1 µM [4, 31]: 8.9%
remaining activity at 1 µM [5, 31]: 100%
remaining activity at 1 µM [6, 31]: 4.3%
remaining activity at 1 µM [7, 31]: 100%
remaining activity at 1 µM [8, 31]: 41%
remaining activity at 1 µM [9, 31]: 82%
remaining activity at 1 µM ([10]; read-out: HYJ-2-002-1 (1μM) % control, JH1 domain-catalytic): 53%
remaining activity at 1 µM ([10]; read-out: HYJ-2-002-1 (1μM) % control, JH2 domain-pseudokinase): 100%
remaining activity at 1 µM [11, 31]: 11%
remaining activity at 1 µM [12, 31]: 55%
remaining activity at 1 µM [13, 31]: 100%
remaining activity at 1 µM [14, 31]: 100%
remaining activity at 1 µM [15, 31]: 3.8%
remaining activity at 1 µM [16, 31]: 34%
remaining activity at 1 µM [17, 31]: 40%
remaining activity at 1 µM [18, 31]: 0.65%
remaining activity at 1 µM [19, 31]: 53%
remaining activity at 1 µM [20, 31]: 100%
remaining activity at 1 µM [21, 31]: 100%
remaining activity at 1 µM [22, 31]: 0.45%
remaining activity at 1 µM [23, 31]: 100%
remaining activity at 1 µM [24, 31]: 100%
remaining activity at 1 µM [25, 31]: 100%
remaining activity at 1 µM [26, 31]: 97%
remaining activity at 1 µM [27, 31]: 82%
remaining activity at 1 µM [28, 31]: 100%
remaining activity at 1 µM [29, 31]: 100%
remaining activity at 1 µM [30, 31]: 100%

CN1CCN(c2ccc(Nc3nc(Oc4ccc(NC(=O)CCl)cc4)c4cc[nH]c4n3)cc2)CC1 [CPT1-70-1]
remaining activity at 1 µM [1, 32]: 100%
remaining activity at 1 µM [2, 32]: 100%
remaining activity at 1 µM [3, 32]: 0.2%
remaining activity at 1 µM [4, 32]: 86%
remaining activity at 1 µM [5, 32]: 100%
remaining activity at 1 µM [6, 32]: 39%
remaining activity at 1 µM [7, 32]: 100%
remaining activity at 1 µM [8, 32]: 100%
remaining activity at 1 µM [9, 32]: 100%
remaining activity at 1 µM ([10]; read-out: CPT-1-70-1 (1μM) % control, JH1 domain-catalytic): 7.4%
remaining activity at 1 µM ([10]; read-out: CPT-1-70-1 (1μM) % control, JH2 domain-pseudokinase): 68%
remaining activity at 1 µM [11, 32]: 20%
remaining activity at 1 µM [12, 32]: 100%
remaining activity at 1 µM [13, 32]: 100%
remaining activity at 1 µM [14, 32]: 100%
remaining activity at 1 µM [15, 32]: 10%
remaining activity at 1 µM [16, 32]: 57%
remaining activity at 1 µM [17, 32]: 100%
remaining activity at 1 µM [18, 32]: 64%
remaining activity at 1 µM [19, 32]: 19%
remaining activity at 1 µM [20, 32]: 100%
remaining activity at 1 µM [21, 32]: 100%
remaining activity at 1 µM [22, 32]: 0.45%
remaining activity at 1 µM [23, 32]: 100%
remaining activity at 1 µM [24, 32]: 100%
remaining activity at 1 µM [25, 32]: 100%
remaining activity at 1 µM [26, 32]: 100%
remaining activity at 1 µM [27, 32]: 100%
remaining activity at 1 µM [28, 32]: 23%
remaining activity at 1 µM [29, 32]: 100%
remaining activity at 1 µM [30, 32]: 100%
